Reference: patent US20240350494A1, “THERAPEUTIC MODULATION OF INTEGRINS” (Pliant Therapeutics, Inc., priority 2021, published 2024)
“Also recorded” adds a separate entry of the source.

Experiments:
[1] = tested on: Human bronchial epithelial cells; assay: LAP adhesion assay, normal human bronchial epithelial cells (express αVβ6); assay type: cell-based; settings: cell index (electrical impedance), xCELLigence; FIG. 1A
Procedure: (§1) Two latency associated peptide (LAP) adhesion binding assays were devised using primary human lung cells, including normal (healthy) human bronchial epithelial cells and human lung fibroblasts (healthy and IPF).
Human bronchial epithelial cells are known to express αVβ6 integrin in culture. Human bronchial epithelial cells were prepared for the assay by dissociation with trypsin/EDTA and were then seeded at 20,000 cells per well on 96 well plates (ACEA Bioscience E-plate View, Acea Biosciences; San Diego, CA) previously coated with 5 μg/ml of recombinant human LAP (R&D Systems; Minneapolis, MN) and blocked with 4% bovine serum albumin. Cell index (electrical impedance) was measured to assess cell attachment/spreading every 3 minutes for 24 hours at 37° C./5% CO2 using the xCELLigence RTCA MP Instrument (Acea Biosciences; San Diego, CA).

[2] = tested on: IPF-derived human lung fibroblasts; assay: LAP adhesion assay, IPF-derived human lung fibroblasts (express αVβ1); assay type: cell-based; settings: LAP-coated plates, cell index, xCELLigence; FIG. 1B
Procedure: as §1
Human lung fibroblasts derived from normal and IPF lung tissue are known to express αVβ1 integrin. The IPF-derived human lung fibroblasts were prepared for the assay by dissociation with trypsin/EDTA, and were seeded at 20,000 cells per well on 96 well plates (ACEA Bioscience E-plate View, Acea Biosciences; San Diego, CA) previously coated with 5 µg/ml of recombinant human LAP (R&D Systems; Minneapolis, MN) and blocked with 4% bovine serum albumin. Cell index (electrical impedance) was measured to assess cell attachment/spreading every 3 minutes for 24 hours at 37° C./5% CO2 using the xCELLigence RTCA MP Instrument (Acea Biosciences; San Diego, CA). […] In the assay, the IPF-derived human lung fibroblasts were separately incubated with: the αVβ1-selective small molecule inhibitor; the selective antibody αVβ6 inhibitor, 3G9; and compound 5.

pSMAD2:SMAD2 ratio = pSMAD2:SMAD2 ratio in BAL of healthy subjects (20 or 40 mg daily); assay type: in vivo, human; settings: all subjects with Cmax above 700 ng/mL; Day 7; FIG. 6G
Procedure: In order to evaluate the change of pSMAD2 as a biomarker of TGF-β activity following administration of an integrin inhibitor, and to determine a therapeutically effective dosage and an effective blood plasma Cmax of the integrin inhibitor, healthy subjects were administered compound 5, a dual selective αVβ6/αVβ1-integrin inhibitor, and the corresponding Cmax levels and decrease in phosphorylation levels and were determined.
Healthy non-smoking adult males without history of lung disease were selected as subjects and were randomized into 4 cohorts. Broncoalevaolar lavage samples were obtained from all subjects 1 day prior to start of treatment. Cohorts 1 and 2 were administered 20 mg of a compound daily, wherein 3 subjects were administered the dual selective αVβ6/αVβ1-integrin inhibitor (compound 5) per every 1 subject receiving a placebo compound. Cohorts 3 and 4 were administered 40 mg of a compound daily, wherein 3 subjects were administered the dual selective αVβ6/αVβ1-integrin inhibitor (compound 5) per every 1 subject receiving a placebo compound. BAL samples and blood samples were taken from all subjects on Day −1 (baseline) and on Day 7 (end of treatment).

αVβ6 = target: T1, αVβ6 (Homo sapiens, UniProt P06756+P18564); assay: αVβ6 target engagement in IPF lungs, [18F]FP-R01-MG-F2 PET/CT; assay type: in vivo; set-up: key to Vt: VT = volume of labeled tissue, from two-compartment kinetic model; key to Vs (corrected for non-displaceable binding, VND = 0.66): VT corrected for non-displaceable tracer binding (VND)
T1 construct: evaluating αVβ6 receptor occupancy in the lungs; from tissue; host or cells: lungs of living participants with IPF (in vivo PET/CT)
Procedure: The aim of this Example is to assess target engagement of the disclosed compounds to αVβ6 in participants with IPF using [^18F]FP-R01-MG-F2 PET/computerized tomography (CT) imaging.
(§2) This Example was conducted as an open-label, single-dose (60 mg, 120 mg, 240 mg or 320 mg) clinical trial evaluating αVβ6 receptor occupancy in the lungs, safety, and pharmacokinetics of Compound 5 in subjects with IPF. Knottin tracer uptake kinetics were compared pre- and post-dose of the disclosed compound, as measured by standardized uptake values (SUVs) and parameters estimated from kinetic modeling in regions-of-interest on dynamic [^18F]FP-R01-MG-F2 PET/CT scans. […] Receptor occupancy was estimated from the output of the two-compartment model (VT, the volume of labeled tissue) using standard equations and fitting algorithms, and corrections for VND (non-displaceable tracer binding). For example, in FIG. 8, the data points, shown as circles, are modeled by the following formula: […]
(§3) Five subjects with IPF were enrolled: Subject A received a single dose of 60 mg of the disclosed compound followed by a post-dose scan. Subject B received two doses of the disclosed compound separated by two weeks, 120 mg and 240 mg, each followed by a post-dose scan. Subject C received two doses of the disclosed compound separated by two weeks, 240 mg and 320 mg, each followed by a post-dose scan. Subject D received a single dose of 320 mg of the disclosed compound followed by a post-dose scan.

[3] = Unbound plasma concentration in the PET study; assay type: in vivo, human; settings: IPF
Procedure: as §2, §3

[4] = Phase 2a trial in IPF, pharmacokinetics; assay type: in vivo, human
Source text: Overall Summary of Safety Pharmacokinetics.

[5] = tested on: forced vital capacity (FVC); assay: Phase 2a trial in IPF, forced vital capacity; assay type: in vivo, human
Source text: The exploratory endpoints of the trial measured changes in forced vital capacity (FVC), HRCT-based Quantitative Lung Fibrosis score (QLF), and selected biomarkers over 3 months of treatment.
FIG. 19 illustrates the change in FVC (forced vital capacity) from baseline to Week 12, MMRM Analysis—ITT Population. Change from baseline analyzed using a mixed model for repeated measures with terms for treatment group, SOC (Y/N), visit, baseline value, and treatment-by-visit interaction. An unstructured covariance (UN) structure was used.

T1 sequence (P06756 31-889 limits assumed): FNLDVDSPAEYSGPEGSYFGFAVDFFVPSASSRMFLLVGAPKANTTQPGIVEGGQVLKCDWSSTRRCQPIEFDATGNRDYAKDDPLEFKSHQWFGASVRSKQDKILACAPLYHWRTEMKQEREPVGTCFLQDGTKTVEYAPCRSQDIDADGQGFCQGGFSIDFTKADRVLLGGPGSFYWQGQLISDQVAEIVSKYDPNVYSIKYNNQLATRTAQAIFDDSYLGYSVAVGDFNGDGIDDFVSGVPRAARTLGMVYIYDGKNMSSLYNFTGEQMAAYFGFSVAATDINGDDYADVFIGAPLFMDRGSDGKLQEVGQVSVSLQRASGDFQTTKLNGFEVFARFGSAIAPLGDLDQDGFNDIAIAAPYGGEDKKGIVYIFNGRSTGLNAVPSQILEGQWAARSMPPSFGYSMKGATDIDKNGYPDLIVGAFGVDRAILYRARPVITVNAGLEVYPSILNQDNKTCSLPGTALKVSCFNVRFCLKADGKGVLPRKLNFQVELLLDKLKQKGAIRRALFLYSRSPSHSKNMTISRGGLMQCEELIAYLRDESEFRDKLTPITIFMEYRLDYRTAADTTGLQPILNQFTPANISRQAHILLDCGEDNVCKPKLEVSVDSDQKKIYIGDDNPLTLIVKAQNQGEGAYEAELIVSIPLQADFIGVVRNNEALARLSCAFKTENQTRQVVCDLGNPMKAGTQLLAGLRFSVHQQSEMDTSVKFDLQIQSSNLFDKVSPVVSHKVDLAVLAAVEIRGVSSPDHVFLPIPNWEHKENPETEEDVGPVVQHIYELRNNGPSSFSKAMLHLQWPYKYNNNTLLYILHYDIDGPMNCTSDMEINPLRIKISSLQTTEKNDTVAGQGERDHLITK
T1 sequence (P06756 891-1048 partner limits assumed): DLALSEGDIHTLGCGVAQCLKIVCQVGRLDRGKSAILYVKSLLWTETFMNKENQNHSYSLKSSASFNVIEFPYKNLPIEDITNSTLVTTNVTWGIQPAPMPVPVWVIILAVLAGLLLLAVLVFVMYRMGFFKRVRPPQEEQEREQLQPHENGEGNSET
T1 sequence (P18564 22-788): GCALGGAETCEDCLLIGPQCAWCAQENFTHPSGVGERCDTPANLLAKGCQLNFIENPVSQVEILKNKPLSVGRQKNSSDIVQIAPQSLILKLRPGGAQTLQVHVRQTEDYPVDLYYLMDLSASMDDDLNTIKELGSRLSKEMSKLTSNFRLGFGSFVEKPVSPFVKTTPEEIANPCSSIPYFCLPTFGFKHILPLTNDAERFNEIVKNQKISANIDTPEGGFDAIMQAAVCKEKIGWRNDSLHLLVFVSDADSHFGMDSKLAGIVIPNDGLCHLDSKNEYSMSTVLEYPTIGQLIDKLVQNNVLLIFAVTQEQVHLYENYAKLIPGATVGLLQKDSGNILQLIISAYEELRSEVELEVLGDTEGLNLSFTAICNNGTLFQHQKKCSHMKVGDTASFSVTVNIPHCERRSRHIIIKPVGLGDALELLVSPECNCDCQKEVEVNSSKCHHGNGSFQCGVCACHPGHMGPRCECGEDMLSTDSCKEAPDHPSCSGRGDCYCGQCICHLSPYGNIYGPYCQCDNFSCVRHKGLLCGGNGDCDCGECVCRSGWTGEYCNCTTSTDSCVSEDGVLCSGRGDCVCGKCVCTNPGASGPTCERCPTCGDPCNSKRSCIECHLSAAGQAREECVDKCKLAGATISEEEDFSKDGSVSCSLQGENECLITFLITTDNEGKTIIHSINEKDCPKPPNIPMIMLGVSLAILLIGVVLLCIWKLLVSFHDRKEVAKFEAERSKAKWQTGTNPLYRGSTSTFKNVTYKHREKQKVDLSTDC

COCCN(CCCCc1ccc2c(n1)NCCC2)CC[C@H](Nc1ncnc2ccccc12)C(=O)O [Compound 5, (S)-4-((2-methoxyethyl)(4-(5,6,7,8-tetrahydro-1,8-naphthyridin-2-yl)butyl)amino)-2-(quinazolin-4-ylamino)butanoic acid]
inhibition of normal bronchial epithelial cell adhesion to LAP [1]: substantially inhibited
inhibition of cell adhesion in the IPF-derived lung fibroblasts [2]: substantially inhibited
reduction in pSMAD2:SMAD2 ratio in BAL compared to the placebo group (pSMAD2:SMAD2 ratio): ≥ 50%
decrease of the volume of distribution of the knottin radiotracer in the lungs (αVβ6; 60 mg dose): approximately 50%
decrease of the volume of distribution of the knottin radiotracer in the lungs (αVβ6; 240 and 320 mg doses): greater than 95%
Receptor occupancy (αVβ6; IPF lungs, at pharmacologically relevant plasma concentrations): > 95%
Vs (corrected for non-displaceable binding, VND = 0.66) (αVβ6; Subject A, 60 mg, post-dose scan (baseline Vs 2.47)): 1.18
Vt (αVβ6; Subject A, 60 mg, post-dose scan (baseline Vt 3.13)): 1.84
% DeltaVt (αVβ6; Subject B, 120 mg): 59.76%
Vs (corrected for non-displaceable binding, VND = 0.66) (αVβ6; Subject B, 120 mg, post-dose scan (baseline Vs 2.48)): 0.99
Vt (αVβ6; Subject B, 120 mg, post-dose scan (baseline Vt 3.12)): 1.65
Vs (corrected for non-displaceable binding, VND = 0.66) (αVβ6; Subject B, 240 mg, post-dose scan (baseline Vs 2.46)): 0.06
Vt (αVβ6; Subject B, 240 mg, post-dose scan (baseline Vt 3.12)): 0.72
Vs (corrected for non-displaceable binding, VND = 0.66) (αVβ6; Subject C, 240 mg, post-dose scan (baseline Vs 1.1)): 0,32
Vt (αVβ6; Subject C, 240 mg, post-dose scan (baseline Vt 1.76)): 0.98
Vs (corrected for non-displaceable binding, VND = 0.66) (αVβ6; Subject C, 320 mg, post-dose scan (baseline Vs 1.1)): 0.19
Vt (αVβ6; Subject C, 320 mg, post-dose scan (baseline Vt 1.76)): 0.85
Vs (corrected for non-displaceable binding, VND = 0.66) (αVβ6; Subject D, 320 mg, post-dose scan (baseline Vs 1.4)): 0.09
Vt (αVβ6; Subject D, 320 mg, post-dose scan (baseline Vt 2.06)): 0.75
concentration at which the exposure response saturates (αVβ6; measured drug exposure at 4 hours, approaching 100% receptor occupancy): about 100 nM
Conc (Unbound Plasma Concentration) ([3]; Subject A, single 60 mg dose): 3.66 nM
Conc (Unbound Plasma Concentration) ([3]; Subject B, 120 mg dose): 10 nM
Conc (Unbound Plasma Concentration) ([3]; Subject B, 240 mg dose two weeks after 120 mg): 58.3 nM
Conc (Unbound Plasma Concentration) ([3]; Subject C, 240 mg dose): 103 nM
Conc (Unbound Plasma Concentration) ([3]; Subject D, single 320 mg dose): 33.6 nM
dose proportionality of plasma concentrations ([4]; IPF participants, 40-160 mg QD, sparse sampling): generally dose proportional increases; also recorded: increased approximately proportionally with dose
pharmacokinetic profile ([4]; IPF patients, 12-week treatment): favorable pharmacokinetic profile
increase in FVC relative to baseline ([5]; 80 mg QD, 12 weeks): +24.6 mL
treatment effect on FVC versus placebo at 12 weeks ([5]; 40, 80, 160 mg QD): dose-dependent treatment effect
proportion of patients experiencing a FVCpp decline of ≥10%, dose dependence ([5]; 40, 80, 160 mg QD, 12 weeks): Dose-dependent reduction; also recorded: dose-dependent decrease; also recorded: Dose dependent reduction
treatment effect with and without standard of care therapy ([5]; all Compound 5 dose groups, SoC nintedanib or pirfenidone): A treatment effect was observed; also recorded: evident with and without use of standard-of-care agents
